Experimental data: patent publication US8178524B2, “Noribogaine in the treatment of pain and drug addiction” (Demerx, Inc., priority 1997, dated 2012)

Target: T1, μ-opioid receptor (Rattus norvegicus, UniProt P33535)
T1 construct: from tissue; host or cells: rat (Sprague Dawley) thalamic membranes
Assay: Stimulation of [35S]GTPγS binding to rat thalamic membranes (receptor activation of G proteins)
Format: biochemical, Rat (Sprague Dawley)

T1 sequence (P33535 whole entry): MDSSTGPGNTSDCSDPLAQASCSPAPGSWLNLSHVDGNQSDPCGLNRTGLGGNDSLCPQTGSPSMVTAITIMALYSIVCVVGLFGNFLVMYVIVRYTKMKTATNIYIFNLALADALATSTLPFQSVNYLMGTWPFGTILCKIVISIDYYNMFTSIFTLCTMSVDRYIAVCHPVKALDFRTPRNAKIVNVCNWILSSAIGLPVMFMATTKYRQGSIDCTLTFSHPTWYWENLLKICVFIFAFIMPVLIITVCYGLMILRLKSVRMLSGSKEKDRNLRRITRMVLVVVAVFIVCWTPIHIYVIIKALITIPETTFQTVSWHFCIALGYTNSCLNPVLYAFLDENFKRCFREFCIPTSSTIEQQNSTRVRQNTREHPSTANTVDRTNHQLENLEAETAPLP

| Structure (SMILES) | stimulation of [35S]GTPγS binding (even at concentrations above 100 μM) | agonist efficacy at the μ-opioid receptor (conclusion from [35S]GTPγS binding results) | level of [35S]GTPγS binding stimulated vs maximal number of binding sites occupied after DAMGO stimulation (relative to DAMGO stimulation of G proteins) |
| --- | --- | --- | --- |
| CC[C@H]1C[C@H]2C[C@H]3c4[nH]c5ccc(OC)cc5c4CCN(C2)C13 [Ibogaine] | weak stimulation | – | – |
| CC[C@H]1C[C@H]2C[C@H]3c4[nH]c5ccc(O)cc5c4CCN(C2)C13 [Noribogaine, 12-hydroxyibogamine] | – | full agonist | in close agreement |
